Data set [1] concerns mice with MIA-induced inflammatory chronic pain. As to the kind of experiment: von Frey mechanical sensitivity in MIA-induced inflammatory chronic pain. The data set is classed as in vivo, mouse. To be noted: for acupuncture-induced acute analgesia: agent applied at ST36 prior to each acupuncture; for acupuncture-induced RHyp (resolution of hypersensitivity): agent given with repetitive acupuncture (DPCPX, topical lidocaine at ST36; caffeine oral 0.1 mg/ml). The source says: To assess if repetitive application of acupuncture produces an extension of transient analgesia or RHyp, inflammatory chronic pain was induced by administering monosodium iodoacetate (MIA) in the hind limb knee joints of mice (FIG. 1A and FIG. 5A), in which spreading of hypersensitivity (hyperalgesia and allodynia) in the limb develops in 3 weeks and never wears off thereafter (Combe et al., 2004, Neurosci Lett 370:236-240; Ogbonna et al., 2015, Age (Dordr) 37:9792; Rahman & Dickenson, 2015, Neuroscience 295:103-116). […] Manual acupuncture, given twice a week at ST36, induced acute analgesia in weeks 2 and 3 as well. […] This delayed-onset reduction of hypersensitivity was not a result of loss of the knee arthritis pathology, as indicated by the synovial membrane hypertrophy (FIG. 5B). […] In order to identify the cell type whose A1R mediates acute analgesia and RHyp, transgenic mice with conditional deletion of A1R selectively in sensory neurons were generated (Akopian et al, 1996, Nature 379:257-262; Stirling et al., 2005, Pain 113:27-36). (FIG. 5C). […] Both acute analgesia and RHyp were absent with repetitive administration of vehicle (FIG. 5D). […] Combined, chronic activation of A1R in sensory neurons resolves sensitization state, which can be induced by repetitive acupuncture.
Mechanical sensitivity was measured using a slightly modified Semmes-Weinstein von Frey Aesthesiometer touch test. Before beginning the measurement session, animals were acclimated to the acrylic chamber (IITC Life Science, Woodland Hills, Calif.) for 60 minutes per day for two days. Baseline mechanosensitivity was measured at least twice on different days to validate the stable, low mechanosensitivity in all mice prior to pain induction administered on the day of the second measurement. The average of the two measurements was recorded as the baseline sensitivity value. Pain-induced hyper-mechanosensitivity was evaluated three weeks after the intra-articular administration of monosodium iodoacetate (MIA, Sigma-Aldrich, 60 mg/ml, 5 μl) to a knee joint. Of note, most other inflammatory pain models cannot stably sustain hypersensitivity over months. The evaluation was performed by gently applying a thin filament of 0.04 g force to the hind paw of the animals, and the rapid retraction or tapping of the foot was counted as a positive response. A total of six trials were given to a paw in one measurement session with an interval of at least 5 min between each trial. Positive responses in the all trials were recorded, and the data were represented as the percent of positive responses. Percent change in mechanosensitivity by treatments was obtained by subtracting values of percent responses before acupuncture from that after acupuncture for each animal. […] All behavioral measurements were done at the same time of the day during the 12-hour light cycle.
For acupuncture treatment, animals were placed in a restrainer with the hind leg, ipsilateral to the knee inflammation, secured and loosely stretched. An acupuncture needle (0.20 mm; DBC Spring, Lhasa OMS, Weymouth, Mass.) was gently inserted to ST36 Zusanli point (3-4 mm below and 1-2 mm lateral from the midline from the knee) at a depth of 1.5 mm,^40 then slowly rotated for 1 minute every 3-4 minutes for a 20-minute session while the mice were awake. For sham treatment, the acupuncture needle was inserted in the same way, but then untouched for 20 minutes. The animals were immediately transferred back to the chamber and acclimated for at least 15 minutes before the post-treatment mechanosensitivity measurements. In selected experiments, solution of 2-Chloro-N^6-cyclopentyladenosine (CCPA, Sigma-Aldrich, 100 μM, 5 μl) was administered to ST36 at a depth of 1.5 mm instead of acupuncture needle. 8-Cyclopentyl-1,3-dipropylxanthine (DPCPX, Sigma-Aldrich, 100 µM, 5 μl) was administered to ST36 at a depth of 1.5 mm prior to acupuncture needle insertion. […]

Data set [2] deals with mice with CFA-induced acute inflammatory pain. As to the kind of experiment: ankle circumference (swelling) in CFA model. The data set is classed as in vivo, mouse. To be noted: day five, compared to CFA-induced group that received F5-Phe gel.
For data set [3] the test system is unchanged. As to the kind of experiment: von Frey mechanical sensitivity in CFA-induced acute inflammatory pain. The data set is classed as in vivo, mouse.
Data set [4] can be described thus: in vitro release of CCPA from Fmoc-F5-Phe cation hydrogel (HPLC). Particulars: 37° C. The data set is classed as physicochemical. As for the experimental part: To determine the amount of CCPA released from a 1 mL hydrogel of the Fmoc-F^5-Phe cation (33.7 mM Fmoc-F^5-Phe cation, 114 mM NaCl, 0.5 mM CCPA) as a function of time, 1.5 mL of isotonic water (114 mM NaCl) was slowly added to the top of the gel to avoid disrupting the gel. This bilayer mixture was sealed in a screw top vial and placed in a 37° C. oven. Aliquots (80 μL) were removed 20 min, 40 min, 60 min, 2 h, 3 h, 4 h, 6 h, 30 h, 54 h, and 78 h after the salt water was initially layered over the gel. After removing each aliquot, the salt solution was immediately replaced with an equal volume of salt solution (80 μL, 114 mM NaCl). Aliquots were assessed by injection onto analytical HPLC instrument in order to determine the amount of CCPA that had been released. A Shimadzu 2010A HPLC instrument equipped with a Phenomenex Gemini 5 micron C18 column (250×4.6 mm) with a guard column was used to determine concentration of the CCPA released into the 1.5 mL salt solution by correlation of integrated peak area to a previously constructed CCPA concentration curve. This concentration was converted to mol of CCPA and the diffusion coefficient was determined using Equation 1. […]

Data set [5] concerns sciatic nerve tissue. Nature of the data set: CCPA permeability into sciatic nerve in vivo. On the set-up: species or system mouse. As to the method:
For quantification of CCPA permeability, parafilm (7×20 mm) was placed underneath of the exposed sciatic nerve which was then covered with a custom-made enclosure (6.5 mm length plastic tube, 1.5 mm inner diameter with 120° opening) to control the length of nerve exposed to the drugs. The enclosure surrounding the nerve was gently filled with 10 μl of CCPA (5 mM) alone or a mixture of CCPA and an ENT1/2 inhibitor, 6-S-[(4-Nitrophenyl)methyl]-6-thioinosine (NBMPR, Thermo Fisher, 1 mM). After 90 minutes, the nerve was washed with PBS, extracted (6 mm length), and stored at −80° C. Tissues were homogenized in methanol using FastPrep-24 5G with CoolPrep adapter (MP Biomedicals) and incubated for 12-14 hours at −20° C. After centrifuging at 12,000 g for 15 minutes, the supernatants were dried down in CentriVap concentrator and then reconstituted in 50% DMSO. In the pilot studies, it was confirmed that highest recovery rate of CCPA was obtained with homogenization in methanol, compared to that in ethanol or HEPES buffer solution followed by ultrafilteration, and recovery rate was calculated as 95.19%. The concentrations of CCPA in samples were quantified by HPLC.

“Also recorded” adds a separate entry of the source.

On to `CCN(CC)CC(=O)Nc1c(C)cccc1C` [lidocaine], for which, in data set [1], the acupuncture-induced acute analgesia entry is “loss of acupuncture-induced acute analgesia” and the “acupuncture-induced RHyp (resolution of hypersensitivity)” value (“acupuncture-induced RHyp” for short) is “RHyp was induced”. For the same compound, the hind paw sensitivity entry in data set [1] (topical 5% lidocaine at ST36 without acupuncture) was “no changes in hind paw hypersensitivity; also recorded: did not modulate hind paw sensitivity”.

As to `CCCC(=O)Nc1ncnc2c1ncn2[C@@H]1O[C@@H]2COP(=O)(O)O[C@H]2[C@H]1OC(=O)CCC` [dbcAMP, N^6,O^2-dibutyryladenosine 3,5-cyclic monophosphate], in data set [1] (co-delivered with CCPA by F5-Phe, submuscular at ST36), the “delay of onset of RHyp” value is on record as 3 weeks.

On to `O=C(O)Cc1ccccc1Nc1c(Cl)cccc1Cl` [Dcf, diclofenac], for which the ankle circumference result in data set [2] is “slightly lower circumferences”. The mechanical sensitivity in data set [3] (from 24 h after injection over the final 13 days, 0.1 mg/mL, 10 μL) is roughly 80%. The “relative percentage of hind paw sensitivity” value in data set [3] (within hours of injection, versus gel lacking diclofenac) is reported as “decreased significantly”.

Turning to `OC[C@H]1O[C@@H](n2cnc3c(NC4CCCC4)nc(Cl)nc32)[C@H](O)[C@@H]1O` [CCPA, 2-Chloro-N^6-cyclopentyladenosine], in data set [4] (1 mL gel, 33.7 mM gelator, 500 μM CCPA, 114 mM NaCl, first 200 minutes), the “diffusion coefficient of CCPA release” value was 3.15×10^−9 m^2 min^−1. The “duration of continuous release from F5-Phe hydrogel” value in data set [4] (CCPA 500 μM) was 15 days. Also, the “CCPA entry into sciatic nerve” value in data set [5] (CCPA 5 mM applied outside the nerve in vivo, 90 minutes) was “found inside the sciatic nerve tissue”. In data set [1] (A1R conditional knockout (A1RcKO) mice, repetitive administration), the “response of hypersensitivity (acute analgesia, RHyp)” value was “unresponsive”. Further, the re-emergence of hypersensitivity entry in data set [1] (WT animals, post-treatment observation period) is on record as “never re-emerged”. Further, in data set [1] (repetitive CCPA solution (100 μM, 5 μl) at ST36 instead of acupuncture), the RHyp entry is given as “induced RHyp”.

For the compound `Cn1c(=O)c2c(ncn2C)n(C)c1=O` [caffeine], the “acupuncture-induced RHyp” value in data set [1] is on record as “abolished”.

Turning to `CCCn1c(=O)c2[nH]c(C3CCCC3)nc2n(CCC)c1=O` [DPCPX, 8-Cyclopentyl-1,3-dipropylxanthine], in data set [1], the acupuncture-induced acute analgesia entry is given as “inhibited the manifestation” and the “acupuncture-induced RHyp” value is “inhibited the manifestation”.

Turning to `COc1cccc(C2(O)CCCCC2CN(C)C)c1` (stereo not drawn) [tramadol], in data set [1] (repetitive systemic administration), the “acute analgesia and RHyp” value is on record as “gradual loss of acute analgesia instead of RHyp”.

Regarding `O=[N+]([O-])c1ccc(CSc2ncnc3c2ncn3[C@@H]2O[C@H](CO)[C@@H](O)[C@H]2O)cc1` [NBMPR, 6-S-[(4-Nitrophenyl)methyl]-6-thioinosine], the “effect on CCPA entry into sciatic nerve” value in data set [5] (NBMPR 1 mM mixed with CCPA 5 mM) is “reduced the CCPA entry”.

Values taken from patent US20200276312A1, “Elimination of chronic pain by chronic activation of adenosine receptor type A1 in peripheral sensory neurons” (University of Rochester, priority 2019, published 2020).
